Measurements: patent US20260232767A1, “INTERLEUKIN-23 RECEPTOR ANTAGONIST PEPTIDES FOR USE IN THE TREATMENT OF PSORIASIS” (Janssen Pharmaceutica NV, priority 2023, published 2026)

Tested on: subjects with moderate-to-severe plaque psoriasis
Experiment: PASI response, Example 2 long-term extension to Week 52
Type: in vivo, human
Details: for Change from Baseline in PASI Total Score, LSMean: MMRM model
Excerpt: Described below is a multicenter, long-term extension (LTE), double-blind, dose-ranging, parallel group interventional study in participants from Example 1 to evaluate the long-term efficacy and safety of the hydrochloride salt of the compound of Formula (I) for the treatment of moderate-to-severe plaque psoriasis. Patients from Example 1 continued to receive the same dose of the compound of Formula (I) for an additional 36-week treatment period with a 4-week safety follow up period after the last administration of the compound of Formula (I). Patients randomized to placebo in Example 1 received the compound of Formula (I) at a dose of 100 mg QD starting at Week 16 of Example 1 (FIG. 21).
The primary efficacy endpoint is the proportion of participants achieving a PASI 75 response at Week 52, defined as at least a […] reduction from baseline PASI of Example 1. For primary analysis, composite strategy (non-responder imputation) was applied to address intercurrent event #1 (Discontinuation of study intervention due to lack of efficacy or due to an AE of worsening of psoriasis) and […] (initiation of a protocol-prohibited medication or therapy that could improve psoriasis); treatment policy strategy (observed data) was applied to intercurrent event #3 (Discontinuation of study intervention due to other reasons). Participants with missing data after application of ICEs are considered as non-responders.
Since there was no control arm (after week 16), in this primary analysis, only the proportion of participants who achieved a PASI75 response and its […] confidence interval at Week 52 were summarized for each intervention group.

[1] = Placebo → 100 mg QD, crossed over at or after Week 16, Week 20
[2] = Placebo → 100 mg QD, crossed over at or after Week 16, Week 24
[3] = Placebo → 100 mg QD, crossed over at or after Week 16, Week 28
[4] = Placebo → 100 mg QD, crossed over at or after Week 16, Week 32
[5] = Placebo → 100 mg QD, crossed over at or after Week 16, Week 40
[6] = Placebo → 100 mg QD, crossed over at or after Week 16, Week 52
[7] = Placebo → 100 mg QD, crossed over at or after Week 16, Week 52, non-responder imputation

CC(=O)NCCCC[C@@H]1NC(=O)[C@H](Cc2c[nH]c3c(C)cccc23)NC(=O)[C@H]([C@@H](C)O)NC(=O)[C@H](CC(N)=O)NC(=O)[C@@H](NC(C)=O)C(C)(C)SSC(C)(C)[C@@H](C(=O)N[C@@H](Cc2ccc(OCCN)cc2)C(=O)N[C@@H](Cc2ccc3ccccc3c2)C(=O)NC2(C(=O)N[C@@H](CCC(=O)O)C(=O)N[C@@H](CC(N)=O)C(=O)N[C@@H](Cc3cccnc3)C(=O)N(C)CC(N)=O)CCOCC2)NC1=O [IL-23 receptor antagonist peptide, Ac-[Pen]*-N-T-[W(7-Me)]-[Lys(Ac)]-[Pen]*-Phe[4-(2-aminoethoxy)]-[2-Nal]-[THP]-E-N-[3-Pal]-Sarc-NH2 (*[Pen]-[Pen]* formdisulfidebond)]
Subjects achieving PASI 75 (100 mg QD, Week 52): 28 (65.1%)
Change from Baseline in PASI Total Score, LSMean (100 mg QD, Week 52): −15.5
Subjects achieving ≥75% Improvement at Week 52 (PASI 75 Response) (100 mg QD, Week 52, non-responder imputation): 28 (65.1%)
Change from Baseline in PASI Total Score, Mean [1]: −10.44
Change from Baseline in PASI Total Score, Median [1]: −10.35
Change from Baseline in PASI Total Score, LSMean [1]: −10.3
Change from Baseline in PASI Total Score, Mean [2]: −13.26
Change from Baseline in PASI Total Score, Median [2]: −14.10
Change from Baseline in PASI Total Score, LSMean [2]: −13.2
Change from Baseline in PASI Total Score, Mean [3]: −13.77
Change from Baseline in PASI Total Score, Median [3]: −14.10
Change from Baseline in PASI Total Score, LSMean [3]: −13.7
Change from Baseline in PASI Total Score, Mean [4]: −14.14
Change from Baseline in PASI Total Score, Median [4]: −14.75
Change from Baseline in PASI Total Score, LSMean [4]: −13.7
Change from Baseline in PASI Total Score, Mean [5]: −13.73
Change from Baseline in PASI Total Score, Median [5]: −14.85
Change from Baseline in PASI Total Score, LSMean [5]: −13.6
Change from Baseline in PASI Total Score, Mean [6]: −14.15
Change from Baseline in PASI Total Score, Median [6]: −15.30
Change from Baseline in PASI Total Score, LSMean [6]: −14.0
Subjects achieving 100% Improvement at Week 52 (PASI) [7]: 12 (34.3%)
Subjects achieving ≥75% Improvement at Week 52 (PASI 75 Response) [7]: 23 (65.7%)
Subjects achieving ≥90% Improvement at Week 52 (PASI) [7]: 20 (57.1%)
PASI ≥75% Improvement, subjects (%) (Week 1, 50 mg QD, N=43): (4.7%)
PASI ≥75% Improvement, subjects (%) (Week 1, 100 mg BID, N=42): (2.4%)
PASI ≥90% Improvement, subjects (%) (Week 1, 100 mg BID, N=42): (2.4%)
PASI ≥75% Improvement, subjects (%) (Week 1, 100 mg QD, N=43): (2.3%)
PASI ≥75% Improvement, subjects (%) (Week 2, 50 mg QD, N=43): (4.7%)
PASI ≥75% Improvement, subjects (%) (Week 2, 100 mg BID, N=42): (4.8%)
PASI ≥90% Improvement, subjects (%) (Week 2, 100 mg BID, N=42): (2.4%)
PASI ≥75% Improvement, subjects (%) (Week 2, 100 mg QD, N=43): (2.3%)
PASI ≥75% Improvement, subjects (%) (Week 4, 25 mg BID, N=41): (4.9%)
PASI ≥75% Improvement, subjects (%) (Week 4, 25 mg QD, N=43): (9.3%)
PASI ≥90% Improvement, subjects (%) (Week 4, 25 mg QD, N=43): (2.3%)
PASI ≥75% Improvement, subjects (%) (Week 4, 50 mg QD, N=43): (16.3%)
PASI ≥75% Improvement, subjects (%) (Week 4, 100 mg BID, N=42): (23.8%)
PASI ≥90% Improvement, subjects (%) (Week 4, 100 mg BID, N=42): (9.5%)
PASI ≥75% Improvement, subjects (%) (Week 4, 100 mg QD, N=43): (16.3%)
PASI ≥90% Improvement, subjects (%) (Week 4, 100 mg QD, N=43): (4.7%)
PASI 100% Improvement, subjects (%) (Week 8, 25 mg BID, N=41): (2.4%)
PASI ≥75% Improvement, subjects (%) (Week 8, 25 mg BID, N=41): (19.5%)
PASI ≥90% Improvement, subjects (%) (Week 8, 25 mg BID, N=41): (7.3%)
PASI 100% Improvement, subjects (%) (Week 8, 25 mg QD, N=43): (2.3%)
PASI ≥75% Improvement, subjects (%) (Week 8, 25 mg QD, N=43): (23.3%)
PASI ≥90% Improvement, subjects (%) (Week 8, 25 mg QD, N=43): (14.0%)
PASI 100% Improvement, subjects (%) (Week 8, 50 mg QD, N=43): (2.3%)
PASI ≥75% Improvement, subjects (%) (Week 8, 50 mg QD, N=43): (39.5%)
PASI ≥90% Improvement, subjects (%) (Week 8, 50 mg QD, N=43): (18.6%)
PASI 100% Improvement, subjects (%) (Week 8, 100 mg BID, N=42): (11.9%)
PASI ≥75% Improvement, subjects (%) (Week 8, 100 mg BID, N=42): (47.6%)
PASI ≥90% Improvement, subjects (%) (Week 8, 100 mg BID, N=42): (28.6%)
PASI 100% Improvement, subjects (%) (Week 8, 100 mg QD, N=43): (4.7%)
PASI ≥75% Improvement, subjects (%) (Week 8, 100 mg QD, N=43): (44.2%)
PASI ≥90% Improvement, subjects (%) (Week 8, 100 mg QD, N=43): (20.9%)
PASI 100% Improvement, subjects (%) (Week 12, 25 mg BID, N=41): (4.9%)
PASI ≥75% Improvement, subjects (%) (Week 12, 25 mg BID, N=41): (51.2%)
PASI ≥90% Improvement, subjects (%) (Week 12, 25 mg BID, N=41): (19.5%)
PASI 100% Improvement, subjects (%) (Week 12, 25 mg QD, N=43): (4.7%)
PASI ≥75% Improvement, subjects (%) (Week 12, 25 mg QD, N=43): (34.9%)
PASI ≥90% Improvement, subjects (%) (Week 12, 25 mg QD, N=43): (18.6%)
PASI 100% Improvement, subjects (%) (Week 12, 50 mg QD, N=43): (4.7%)
PASI ≥75% Improvement, subjects (%) (Week 12, 50 mg QD, N=43): (51.2%)
PASI ≥90% Improvement, subjects (%) (Week 12, 50 mg QD, N=43): (34.9%)
PASI 100% Improvement, subjects (%) (Week 12, 100 mg BID, N=42): (33.3%)
PASI ≥75% Improvement, subjects (%) (Week 12, 100 mg BID, N=42): (73.8%)
PASI ≥90% Improvement, subjects (%) (Week 12, 100 mg BID, N=42): (52.4%)
PASI 100% Improvement, subjects (%) (Week 12, 100 mg QD, N=43): (14.0%)
PASI ≥75% Improvement, subjects (%) (Week 12, 100 mg QD, N=43): (62.8%)
PASI ≥90% Improvement, subjects (%) (Week 12, 100 mg QD, N=43): (39.5%)
PASI 100% Improvement, subjects (%) (Week 16, 25 mg BID, N=41): (9.8%)
PASI ≥75% Improvement, subjects (%) (Week 16, 25 mg BID, N=41): (51.2%)
PASI ≥90% Improvement, subjects (%) (Week 16, 25 mg BID, N=41): (26.8%)
PASI 100% Improvement, subjects (%) (Week 16, 25 mg QD, N=43): (11.6%)
PASI ≥75% Improvement, subjects (%) (Week 16, 25 mg QD, N=43): (37.2%)
PASI ≥90% Improvement, subjects (%) (Week 16, 25 mg QD, N=43): (25.6%)
PASI 100% Improvement, subjects (%) (Week 16, 50 mg QD, N=43): (25.6%)
PASI ≥75% Improvement, subjects (%) (Week 16, 50 mg QD, N=43): (58.1%)
PASI ≥90% Improvement, subjects (%) (Week 16, 50 mg QD, N=43): (51.2%)
PASI 100% Improvement, subjects (%) (Week 16, 100 mg BID, N=42): (40.5%)
PASI ≥75% Improvement, subjects (%) (Week 16, 100 mg BID, N=42): (78.6%)
PASI ≥90% Improvement, subjects (%) (Week 16, 100 mg BID, N=42): (59.5%)
PASI 100% Improvement, subjects (%) (Week 16, 100 mg QD, N=43): (23.3%)
PASI ≥75% Improvement, subjects (%) (Week 16, 100 mg QD, N=43): (65.1%)
PASI ≥90% Improvement, subjects (%) (Week 16, 100 mg QD, N=43): (46.5%)
PASI 100% Improvement, subjects (%) (Week 20, 25 mg BID, N=41): (19.5%)
PASI ≥75% Improvement, subjects (%) (Week 20, 25 mg BID, N=41): (56.1%)
PASI ≥90% Improvement, subjects (%) (Week 20, 25 mg BID, N=41): (34.1%)
PASI 100% Improvement, subjects (%) (Week 20, 25 mg QD, N=43): (14.0%)
PASI ≥75% Improvement, subjects (%) (Week 20, 25 mg QD, N=43): (48.8%)
PASI ≥90% Improvement, subjects (%) (Week 20, 25 mg QD, N=43): (30.2%)
PASI 100% Improvement, subjects (%) (Week 20, 50 mg QD, N=43): (18.6%)
PASI ≥75% Improvement, subjects (%) (Week 20, 50 mg QD, N=43): (62.8%)
PASI ≥90% Improvement, subjects (%) (Week 20, 50 mg QD, N=43): (48.8%)
PASI 100% Improvement, subjects (%) (Week 20, 100 mg BID, N=42): (40.5%)
PASI ≥75% Improvement, subjects (%) (Week 20, 100 mg BID, N=42): (81.0%)
